Source: patent US20070196885A1, “Method of determining carbonic anhydrase i activity” (YAMASA CORPORATION, priority 2004, published 2007)

Tests used:
Type in all cases: biochemical
[1] = biological target: T1, human CAII (Homo sapiens, UniProt P00918); assay: Hydrolase activity with AEBSF and formaldehyde (Example 3); conditions: 5-μg/mL human CAII solution; 9 mM substrate solution; 0.1 mM AEBSF and 50 mM formaldehyde; pH 8, room temperature, five minutes
Description: (§1) o-Nitrophenyl acetate was employed as a substrate having higher reactivity with CAI than with CAII. In addition, 4-(2-aminoethyl)benzenesulfony fluoride (AEBSF) serving as an inhibitor inhibiting a hydrolase other than CA, and formaldehyde serving as an enhancer of the inhibitor were employed.
(§2) • (1) By use of purified water, a 25-μg/mL human CAI solution and a 5-μg/mL human CAII solution were prepared. • (2) A 30 mM dimethyl malonate buffer (pH: 8) including 0.1 mM AEBSF, and 50 mM formaldehyde were provided. • (3) By use of purified water, a 9 mM o-nitrophenyl acetate solution was prepared. Before dissolution in water, the substrate had been dissolved in advance in acetone. […] Absorbance of the mixture was measured at 405 nm before and after reaction, and change in absorbance (ΔA) was calculated.
(§3) In order to prepare a sample reference, only purified water was used as solution (1). The reference was allowed to react in the same manner as above, and absorbance of the mixture was measured at 405 nm before and after reaction, whereby change in absorbance of the reference was determined. The change in absorbance intrinsic to CA was calculated by the following equation:
(§4) <Calculation> Change in CA-intrinsic absorbance=ΔA1−ΔA3; wherein
(§5) ΔA1 represents change in absorbance of a sample consisting of solution (1), solution (2), and solution (3), and […]

[2] = biological target: T2, human CAI (Homo sapiens, UniProt P00915); assay: as above; conditions: 25-μg/mL human CAI solution; 9 mM substrate solution; 0.1 mM AEBSF and 50 mM formaldehyde; pH 8, room temperature, five minutes
T2 sequence (P00915 whole entry): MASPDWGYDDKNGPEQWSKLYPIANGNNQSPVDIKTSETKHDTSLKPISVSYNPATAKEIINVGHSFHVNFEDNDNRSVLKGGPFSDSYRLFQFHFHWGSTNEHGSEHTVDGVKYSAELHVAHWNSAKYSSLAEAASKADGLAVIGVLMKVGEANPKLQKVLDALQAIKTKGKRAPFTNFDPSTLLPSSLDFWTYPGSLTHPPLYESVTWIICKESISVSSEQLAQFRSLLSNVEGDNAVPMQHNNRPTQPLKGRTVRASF
Description: as §1, §2, §3, §4, §5

[3] = biological target: T1, human CAII; assay: Iodide-inhibited hydrolase activity, o-nitrophenyl acetate (Example 9); conditions: 5-μg/mL human CAII solution; 9 mM o-nitrophenyl acetate solution; 300 mM potassium iodide solution; pH 8, room temperature, five minutes
Description: (§6) o-Nitrophenyl acetate was used as a substrate having higher reactivity with CAI than with CAII, and in combination, an iodide ion (I^−) was used as a CA inhibitor inhibiting CAI more potently than CAII.
as §2, with “(2) A 300 mM potassium iodide solution was prepared by use of a 30 mM” for “(2) A 30 mM”, “malonate buffer (pH 8). • (3)” for “malonate buffer (pH: 8) including 0.1 mM AEBSF, and 50 mM formaldehyde were provided. • (3)”
(§7) In order to prepare a sample reference and an inhibitor reference, only purified water and 30 mM dimethyl malonate buffer were used as reference solutions (1) and (2), respectively. Each of the references was allowed to react in the same manner as employed above, and absorbance of the mixture was measured, whereby change in absorbance of the reference was determined. […]

[4] = biological target: T2, human CAI; assay: as above; conditions: 25-μg/mL human CAI solution; 9 mM o-nitrophenyl acetate solution; 300 mM potassium iodide solution; pH 8, room temperature, five minutes
Description: as §6
as §2, with “(2) A 300 mM potassium iodide solution was prepared by use of a 30 mM” for “(2) A 30 mM”, “malonate buffer (pH 8). • (3)” for “malonate buffer (pH: 8) including 0.1 mM AEBSF, and 50 mM formaldehyde were provided. • (3)”
as §7

[5] = biological target: T1, human CAII; assay: Hydrolase activity, o-nitrophenyl acetate substrate, no inhibitor (Example 1); conditions: 5-μg/mL human CAII solution, 9 mM substrate solution, pH 8, room temperature, five minutes
Description: (§8) o-Nitrophenyl acetate was employed as a substrate having higher reactivity with CAI than with CAII, and no inhibitor was used.
(§9) • (1) By use of purified water, a 25-μg/mL human CAI solution and a 5-μg/mL human CAII solution were prepared. • (2) A 30 mM dimethyl malonate buffer (pH: 8) was provided. • (3) By use of purified water, a 9 mM o-nitrophenyl acetate solution was prepared. Before dissolution in water, the substrate had been dissolved in advance in acetone. […] Specifically, solutions of (1), (2), and (3) (each 50 μL) were mixed, and the mixture was allowed to react at room temperature for five minutes. Absorbance of the mixture was measured at 405 nm before and after reaction, and change in absorbance (ΔA) was calculated.
as §3, §4
(§10) ΔA1 represents change in absorbance of a sample consisting of solutions (1), (2), and (3), and
(§11) ΔA3 represents change in absorbance of a sample consisting of reference solution (1) and solutions (2) and (3).

[6] = biological target: T2, human CAI; assay: as above; conditions: 25-μg/mL human CAI solution, 9 mM substrate solution, pH 8, room temperature, five minutes
Description: as §8, §9, §3, §4, §10, §11

[7] = biological target: T1, human CAII; assay: Acetazolamide-inhibited hydrolase activity (Example 5); conditions: 5-μg/mL human CAII solution, 3 mM acetazolamide solution, pH 8, room temperature, five minutes
Text: (§12) o-Nitrophenyl acetate was employed as a substrate having higher reactivity with CAI than with CAII. As an inhibitor, acetazolamide, which inhibits both CAI and CAII, was used in combination. A reference substrate was produced from p-nitrophenyl acetate—a substrate having low specificity to CAI (reactive with both CAI and CAII)—and the above acetazolamide serving as a CA inhibitor in combination.
(§13) • (1) By use of purified water, a 25-μg/mL human CAI solution and a 5-μg/mL human CAII solution were prepared. • (2) A 3 mM acetazolamide solution was prepared by use of a 30 mM dimethyl malonate buffer (pH 8). Before dissolution in the buffer, acetazolamide had been dissolved in advance in dimethyl sulfoxide (DMSO). Thus, the solution has a DMSO content of 0.15% (v/v). • (3) By use of purified water, a 6 mM o-nitrophenyl acetate solution and a 3 mM p-nitrophenyl acetate solution were prepared. Before dissolution in water, each substrate had been dissolved in advance in acetone. […] Specifically, solutions of (1), (2), and (3) (each 50 μL) were mixed, and the mixture was allowed to react at room temperature for five minutes. Absorbance of the mixture was measured at 405 nm before and after reaction, and change in absorbance (ΔA) was calculated.
(§14) In order to prepare a sample reference and an inhibitor reference, only purified water and 0.15% (v/v) DMSO-containing 30 mM dimethyl malonate buffer were used as reference solutions (1) and (2), respectively. Each of the references was allowed to react in the same manner as above, and absorbance of the mixture was measured, whereby change in absorbance of the reference was determined.
(§15) <Calculation> Change in CA-intrinsic absorbance=[ΔA1−ΔA3]−[ΔA2−ΔA4]; wherein • ΔA1 represents change in absorbance of a sample consisting of solution (1), reference solution (2), and solution (3); • ΔA2 represents change in absorbance of a sample consisting of solutions (1), (2), and (3); • ΔA3 represents change in absorbance of a sample consisting of reference solutions (1) and (2), and solution (3); and • ΔA4 represents change in absorbance of a sample consisting of reference solution (1) and solutions (2) and (3). <Results>

[8] = biological target: T2, human CAI; assay: as above; conditions: for Absorbance change (CA-intrinsic, inhibited by acetazolamide, 405 nm): 25-μg/mL human CAI solution, 3 mM acetazolamide solution, pH 8, room temperature, five minutes; for reactivity of substrate with CAI relative to reactivity with CAII: used in combination with acetazolamide (Example 5, Table 3)
Text: as §12, §13, §14, §15

[9] = biological target: T1, human CAII; assay: Iodide-inhibited hydrolase activity, p-nitrophenyl acetate (Example 7); conditions: 5-μg/mL human CAII solution; 3 mM p-nitrophenyl acetate solution; 3 mM potassium iodide solution; pH 8, room temperature, five minutes
Description: (§16) p-Nitrophenyl acetate serving as a substrate reacting with both CAI and CAII and an iodide (I^−) serving as a CA inhibitor inhibiting CAI more potently than CAII were employed in combination.
as §9, with “(2) A 3 mM potassium iodide solution was prepared by use of a 30 mM” for “(2) A 30 mM”, “malonate buffer (pH 8). • (3)” for “malonate buffer (pH: 8) was provided. • (3)”, “water, a 3 mM p-nitrophenyl” for “water, a 9 mM o-nitrophenyl”, “3 mM p-nitrophenyl acetate solution” for “9 mM o-nitrophenyl acetate solution”
as §7

[10] = biological target: T2, human CAI; assay: as above; conditions: 25-μg/mL human CAI solution; 3 mM p-nitrophenyl acetate solution; 3 mM potassium iodide solution; pH 8, room temperature, five minutes
Description: as §16
as §9, with “(2) A 3 mM potassium iodide solution was prepared by use of a 30 mM” for “(2) A 30 mM”, “malonate buffer (pH 8). • (3)” for “malonate buffer (pH: 8) was provided. • (3)”, “water, a 3 mM p-nitrophenyl” for “water, a 9 mM o-nitrophenyl”, “3 mM p-nitrophenyl acetate solution” for “9 mM o-nitrophenyl acetate solution”
as §7

[11] = 6 mM o-nitrophenyl acetate solution
[12] = 3 mM p-nitrophenyl acetate solution

Absorbance change (CA-intrinsic, 405 nm) [1] | Absorbance change (CA-intrinsic, 405 nm) [2] | Absorbance change (CA-intrinsic, inhibited by iodide, 405 nm) [3] | Absorbance change (CA-intrinsic, inhibited by iodide, 405 nm) [4] | Absorbance change (CA-intrinsic, 405 nm) [5] | Absorbance change (CA-intrinsic, 405 nm) [6] | Absorbance change (CA-intrinsic, inhibited by acetazolamide, 405 nm) [7, 11] | Absorbance change (CA-intrinsic, inhibited by acetazolamide, 405 nm) [8, 11] | Absorbance change (CA-intrinsic, inhibited by iodide, 405 nm) [9] | Absorbance change (CA-intrinsic, inhibited by iodide, 405 nm) [10] | Absorbance change (CA-intrinsic, inhibited by acetazolamide, 405 nm) [7, 12] | Absorbance change (CA-intrinsic, inhibited by acetazolamide, 405 nm) [8, 12] | Structure (SMILES) | reactivity of substrate with CAI relative to reactivity with CAII [8]
0.008 | 0.329 | 0.009 | 0.504 | 0.011 | 0.511 | 0.004 | 0.285 |  |  |  |  | CC(=O)Oc1ccccc1[N+](=O)[O-] [o-Nitrophenyl acetate, o-nitrophenyl acetate] | higher than twice the reactivity with CAII
 |  |  |  |  |  |  |  | 0.005 | 0.052 | 0.162 | 0.283 | CC(=O)Oc1ccc([N+](=O)[O-])cc1 [p-Nitrophenyl acetate, p-nitrophenyl acetate] | lower than twice the reactivity with CAII
